The source of these data is PubChem BioAssay (NCI).

Each structure is given as a SMILES string.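 48-hour exposure; five concentrations; linearly interpolated endpoints. GI50 = concentration required for 50% inhibition of growth. At the TGI there is no net growth.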 A value given as a limit tells only on which side of the number the result lay.

Test systems include IGROV1 ovarian; UACC-257 melanoma; SK-MEL-2 melanoma; SR leukemia; MOLT-4 leukemia; MCF7 breast; SF-539 CNS; HCT-15 colon; OVCAR-3 ovarian; RPMI-8226 leukemia.
What all share (test): NCI anticancer screen, dose series, 48 h

Regarding `O=C1C=C(Nc2ccccc2C(=O)CC(=O)C(=O)Nc2cccc(C(F)(F)F)c2)c2ccccc2C1=O`, the TGI was more than 100 µM in the test with IGROV1 ovarian; 31.8 µM in the test with UACC-257 melanoma; 44.5 µM in the test on SK-MEL-2 melanoma; more than 94.7 µM with SR leukemia; more than 57.9 µM in the test with MOLT-4 leukemia; 28.9 µM with MCF7 breast. The TGI is 49 µM with SF-539 CNS, more than 100 µM with HCT-15 colon, 53.8 µM in the test on OVCAR-3 ovarian and more than 100 µM with RPMI-8226 leukemia.

`CCCCC(=O)N/N=C/c1cc(I)cc(I)c1O`: the GI50 was 2.32 µM with IGROV1 ovarian; 2.56 µM with UACC-257 melanoma; 3.22 µM with SK-MEL-2 melanoma; 1.92 µM with SR leukemia; 2.39 µM in the test on MOLT-4 leukemia; 2.72 µM with MCF7 breast. Also, the GI50 in the test with SF-539 CNS is 2.99 µM; with HCT-15 colon, 0.897 µM; with OVCAR-3 ovarian, 2.9 µM; in the test with RPMI-8226 leukemia, 3.95 µM. In addition, the TGI in the test with IGROV1 ovarian amounted to 17.2 µM; in the test on UACC-257 melanoma, 10.4 µM; with SK-MEL-2 melanoma it was 14.4 µM; with SR leukemia it was 14.3 µM; in the test with MOLT-4 leukemia it was 13 µM; in the test with MCF7 breast, 14.6 µM. In addition, the TGI was 12.8 µM in the test with SF-539 CNS, more than 100 µM with HCT-15 colon, 16.9 µM in the test on OVCAR-3 ovarian and 30.1 µM in the test with RPMI-8226 leukemia.

Regarding `COCCOC(=O)C1=C(C)NC2=C(C(=O)CC(c3ccccc3OC)C2)C1c1cccc(O)c1` (stereo not given), the GI50 is 9.54 µM with IGROV1 ovarian; 8.8 µM in the test on UACC-257 melanoma; 10.1 µM with SK-MEL-2 melanoma; 8.76 µM in the test with SR leukemia; 22 µM with MOLT-4 leukemia; 4.31 µM in the test with MCF7 breast. Moreover, the GI50 in the test with SF-539 CNS is 11.9 µM; with HCT-15 colon it was 19.8 µM; in the test with OVCAR-3 ovarian, 9.13 µM; in the test with RPMI-8226 leukemia it was 4.01 µM. For the same compound, the TGI in the test on IGROV1 ovarian is 52.4 µM; in the test with UACC-257 melanoma, 61.1 µM; in the test with SK-MEL-2 melanoma, 26.7 µM; in the test with SR leukemia, more than 59.6 µM; with MOLT-4 leukemia, more than 77.6 µM; in the test with MCF7 breast, 72.4 µM. In addition, the TGI was 43.4 µM with SF-539 CNS, more than 61.9 µM in the test on HCT-15 colon, 23.9 µM in the test with OVCAR-3 ovarian and 31.4 µM with RPMI-8226 leukemia.

As for `O=[N+]([O-])c1ccccc1N=Nc1c(O)[nH]c2ccccc12`, the TGI with IGROV1 ovarian was more than 39.9 µM; in the test on UACC-257 melanoma, more than 100 µM; in the test with SK-MEL-2 melanoma, more than 100 µM; with SR leukemia, more than 100 µM; in the test on MOLT-4 leukemia, more than 100 µM; in the test on MCF7 breast it was more than 100 µM. For the same compound, the TGI in the test with SF-539 CNS is 23.9 µM; with HCT-15 colon it was more than 100 µM; with OVCAR-3 ovarian it was 31.7 µM; with RPMI-8226 leukemia, more than 100 µM.

Regarding `Cn1c(COC(=O)N2CCCCC2)nc2c(N3CCOCC3)nc(-c3ccccc3)nc21`, the GI50 in the test on IGROV1 ovarian was 0.534 µM; in the test with UACC-257 melanoma, 1.22 µM; with SK-MEL-2 melanoma, 1.64 µM; in the test with SR leukemia it was 0.287 µM; in the test with MOLT-4 leukemia, 0.353 µM; in the test on MCF7 breast, 0.378 µM. The GI50 is 1.33 µM with SF-539 CNS, 0.212 µM with HCT-15 colon, 0.182 µM in the test on OVCAR-3 ovarian and 0.257 µM with RPMI-8226 leukemia. The TGI amounted to 1.81 µM in the test on IGROV1 ovarian; 2.67 µM in the test with UACC-257 melanoma; 3.25 µM with SK-MEL-2 melanoma; 2.34 µM with SR leukemia; 2 µM in the test with MOLT-4 leukemia; 1.79 µM in the test with MCF7 breast. Besides, the TGI was determined as 2.61 µM in the test on SF-539 CNS, 0.509 µM with HCT-15 colon, 0.39 µM in the test on OVCAR-3 ovarian and 0.814 µM in the test on RPMI-8226 leukemia.

Regarding `O=C(Nc1cc(C(F)(F)F)ccc1F)Nc1n[nH]c2ccccc12`, the GI50 in the test with IGROV1 ovarian is 0.758 µM; with UACC-257 melanoma, more than 100 µM; in the test with SK-MEL-2 melanoma, more than 100 µM; in the test on SR leukemia, 55.4 µM; in the test on MOLT-4 leukemia it was more than 100 µM; in the test on MCF7 breast, 18.2 µM. For the same compound, the GI50 in the test on SF-539 CNS, in the test with HCT-15 colon, with OVCAR-3 ovarian and in the test with RPMI-8226 leukemia was more than 100 µM in each case. Moreover, the TGI with IGROV1 ovarian, in the test with UACC-257 melanoma, with SK-MEL-2 melanoma, with SR leukemia, with MOLT-4 leukemia and with MCF7 breast was more than 100 µM each time. The TGI with SF-539 CNS, with HCT-15 colon, in the test on OVCAR-3 ovarian and in the test on RPMI-8226 leukemia was more than 100 µM throughout.

Take `CCN(CC)c1ccc2c(c1)Oc1nc(N)c(C#N)c(N)c1C2Sc1ccc(SC)cc1` (stereo not given): the GI50 in the test on IGROV1 ovarian was 1.57 µM; in the test with UACC-257 melanoma, 3.23 µM; in the test with SK-MEL-2 melanoma, 2.48 µM; in the test with SR leukemia it was 0.436 µM; with MOLT-4 leukemia, 1.33 µM; with MCF7 breast, 1.6 µM. The GI50 in the test with SF-539 CNS is 1.64 µM; in the test on HCT-15 colon it was 1.59 µM; in the test with OVCAR-3 ovarian, 1.73 µM; in the test with RPMI-8226 leukemia, 2.5 µM. The TGI was 3.37 µM with IGROV1 ovarian; 6.22 µM with UACC-257 melanoma; 5.51 µM with SK-MEL-2 melanoma; 3.87 µM in the test on SR leukemia; 4.6 µM in the test with MOLT-4 leukemia; 3.65 µM with MCF7 breast. For the same compound, the TGI in the test on SF-539 CNS turned out to be 3 µM; in the test on HCT-15 colon it was 3.07 µM; with OVCAR-3 ovarian, 3.17 µM; in the test with RPMI-8226 leukemia, 6.56 µM.
